From ChEMBL document CHEMBL4177730, “Rational modification of semaxanib and sunitinib for developing a tumor growth inhibitor targeting ATP binding site of tyrosine kinase” (2018)
The source made the active and inactive calls.

What was measured:
Type in all cases: functional, cell-based
SK-OV-3 = assay: Growth inhibition of human SKOV3 cells at 10 uM after 48 hrs by sulforhodamine B assay
MDA-MB-468 = assay: Growth inhibition of human MDA-MB-468 cells at 10 uM after 48 hrs by sulforhodamine B assay
EKVX = assay: Growth inhibition of human EKVX cells at 10 uM after 48 hrs by sulforhodamine B assay
SK-MEL-28 = assay: Growth inhibition of human SK-MEL-28 cells at 10 uM after 48 hrs by sulforhodamine B assay
MCF7 = assay: Growth inhibition of human MCF7 cells at 10 uM after 48 hrs by sulforhodamine B assay
786-0 = assay: Growth inhibition of human 786-0 cells at 10 uM after 48 hrs by sulforhodamine B assay
HOP-92 = assay: Growth inhibition of human HOP92 cells at 10 uM after 48 hrs by sulforhodamine B assay
UO-31 = assay: Growth inhibition of human UO31 cells at 10 uM after 48 hrs by sulforhodamine B assay
CAKI-1 = assay: Growth inhibition of human CAKI-1 cells at 10 uM after 48 hrs by sulforhodamine B assay
BT-549 = assay: Growth inhibition of human BT549 cells at 10 uM after 48 hrs by sulforhodamine B assay
OVCAR-8 = assay: Growth inhibition of human OVCAR8 cells at 10 uM after 48 hrs by sulforhodamine B assay
LOX IMVI = assay: Growth inhibition of human LOXIMVI cells at 10 uM after 48 hrs by sulforhodamine B assay
OVCAR-4 = assay: Growth inhibition of human OVCAR4 cells at 10 uM after 48 hrs by sulforhodamine B assay
ACHN = assay: Growth inhibition of human ACHN cells at 10 uM after 48 hrs by sulforhodamine B assay
SF-268 = assay: Growth inhibition of human SF268 cells at 10 uM after 48 hrs by sulforhodamine B assay
SF-539 = assay: Growth inhibition of human SF539 cells at 10 uM after 48 hrs by sulforhodamine B assay
SK-MEL-2 = assay: Growth inhibition of human SK-MEL-2 cells at 10 uM after 48 hrs by sulforhodamine B assay
IGROV-1 = assay: Growth inhibition of human IGROV1 cells at 10 uM after 48 hrs by sulforhodamine B assay
SF-295 = assay: Growth inhibition of human SF295 cells at 10 uM after 48 hrs by sulforhodamine B assay
HT-29 = assay: Growth inhibition of human HT-29 cells at 10 uM after 48 hrs by sulforhodamine B assay
MDA-MB-435 = assay: Growth inhibition of human MDA-MB-435 cells at 10 uM after 48 hrs by sulforhodamine B assay
HCT-116 = assay: Growth inhibition of human HCT116 cells at 10 uM after 48 hrs by sulforhodamine B assay
NCI-H23 = assay: Growth inhibition of human NCI-H23 cells at 10 uM after 48 hrs by sulforhodamine B assay
HCT-15 = assay: Growth inhibition of human HCT15 cells at 10 uM after 48 hrs by sulforhodamine B assay
PC-3 = assay: Growth inhibition of human PC3 cells at 10 uM after 48 hrs by sulforhodamine B assay
T47D = assay: Growth inhibition of human T47D cells at 10 uM after 48 hrs by sulforhodamine B assay
SK-MEL-5 = assay: Growth inhibition of human SK-MEL-5 cells at 10 uM after 48 hrs by sulforhodamine B assay
A498 = assay: Growth inhibition of human A498 cells at 10 uM after 48 hrs by sulforhodamine B assay
SW-620 = assay: Growth inhibition of human SW620 cells at 10 uM after 48 hrs by sulforhodamine B assay
NCI/ADR-RES = assay: Growth inhibition of human NCI-ADR-RES cells at 10 uM after 48 hrs by sulforhodamine B assay
SR = assay: Growth inhibition of human SR cells at 10 uM after 48 hrs by sulforhodamine B assay
CCRF-CEM = assay: Growth inhibition of human CCRF-CEM cells at 10 uM after 48 hrs by sulforhodamine B assay
SN12C = assay: Growth inhibition of human SN12C cells at 10 uM after 48 hrs by sulforhodamine B assay
DU-145 = assay: Growth inhibition of human DU145 cells at 10 uM after 48 hrs by sulforhodamine B assay
NCI-H460 = assay: Growth inhibition of human NCI-H460 cells at 10 uM after 48 hrs by sulforhodamine B assay
SNB-19 = assay: Growth inhibition of human SNB19 cells at 10 uM after 48 hrs by sulforhodamine B assay
OVCAR-5 = assay: Growth inhibition of human OVCAR5 cells at 10 uM after 48 hrs by sulforhodamine B assay
MDA-MB-231 = assay: Growth inhibition of human MDA-MB-231 cells at 10 uM after 48 hrs by sulforhodamine B assay
U-251 = assay: Growth inhibition of human U251 cells at 10 uM after 48 hrs by sulforhodamine B assay
TK-10 = assay: Growth inhibition of human TK10 cells at 10 uM after 48 hrs by sulforhodamine B assay
Malme-3M = assay: Growth inhibition of human MALME-3M cells at 10 uM after 48 hrs by sulforhodamine B assay
COLO 205 = assay: Growth inhibition of human COLO205 cells at 10 uM after 48 hrs by sulforhodamine B assay
RPMI-8226 = assay: Growth inhibition of human RPMI8226 cells at 10 uM after 48 hrs by sulforhodamine B assay
HCC 2998 = assay: Growth inhibition of human HCC2998 cells at 10 uM after 48 hrs by sulforhodamine B assay
OVCAR-3 = assay: Growth inhibition of human OVCAR3 cells at 10 uM after 48 hrs by sulforhodamine B assay
SNB-75 = assay: Growth inhibition of human SNB75 cells at 10 uM after 48 hrs by sulforhodamine B assay
KM12 = assay: Growth inhibition of human KM12 cells at 10 uM after 48 hrs by sulforhodamine B assay
K562 = assay: Growth inhibition of human K562 cells at 10 uM after 48 hrs by sulforhodamine B assay
M14 = assay: Growth inhibition of human M14 cells at 10 uM after 48 hrs by sulforhodamine B assay
A549 = assay: Growth inhibition of human A549/ATCC cells at 10 uM after 48 hrs by sulforhodamine B assay
NCI-H322M = assay: Growth inhibition of human NCI-H322M cells at 10 uM after 48 hrs by sulforhodamine B assay
MOLT-4 = assay: Growth inhibition of human MOLT4 cells at 10 uM after 48 hrs by sulforhodamine B assay
Hs-578T = assay: Growth inhibition of human Hs 578T cells at 10 uM after 48 hrs by sulforhodamine B assay
UACC-62 = assay: Growth inhibition of human UACC62 cells at 10 uM after 48 hrs by sulforhodamine B assay
NCI-H226 = assay: Growth inhibition of human NCI-H226 cells at 10 uM after 48 hrs by sulforhodamine B assay
HOP-62 = assay: Growth inhibition of human HOP62 cells at 10 uM after 48 hrs by sulforhodamine B assay
RXF 393 = assay: Growth inhibition of human RXF393 cells at 10 uM after 48 hrs by sulforhodamine B assay
NCI-H522 = assay: Growth inhibition of human NCI-H522 cells at 10 uM after 48 hrs by sulforhodamine B assay
HL-60(TB) = assay: Growth inhibition of human HL-60(TB) cells at 10 uM after 48 hrs by sulforhodamine B assay

Measured: growth inhibition (GI)

Cc1ccc(S(=O)(=O)n2cccc2/C=C2\C(=O)N(c3c(Cl)cccc3Cl)c3ccccc32)cc1
inactive: all assays above

O=C1/C(=C\c2ccc[nH]2)c2ccccc2N1c1c(Cl)cccc1Cl
inactive: all assays above
